Experimental findings from patent publication US20250145631A1, “HETEROCYCLIC COMPOUND ACTING ON G12D MUTANT KRAS PROTEIN” (Astellas Pharma Inc., priority 2022, published 2025) are described below.

Test [1] has as its system phosphorylation of ERK (Thr202/Tyr204). Nature of the test: ERK phosphorylation inhibitory effect by Cell ELISA in AsPC-1 cells (Test Example 2). It is filed as cell-based. The note with it: Homo sapiens, ASPC1, overnight treatment, Cell ELISA, read-out: IC50 (ERK phosphorylation inhibition). In a few lines:
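AsPC-1 cells (2.0×10^4/well, RPMI 1640 + 10% FBS) treated overnight with compounds (10 points, 10 μM to 0.3 nM final), then glyoxal-fixed and immunostained for phospho-ERK with IRDye 800CW secondary; 800-nm fluorescence read. IC50 by Sigmoid-Emax regression, normalized to DMSO (100%) and 1 μM trametinib (0%).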
For orientation: In an ELISA, binding on a coated surface is turned into a signal by an enzyme label.

For test [2], the system named is human KRAS G12D mutant-positive PK-59 pancreatic cancer cell line-derived xenograft. Nature of the test: Anti-tumor activity in PK-59 xenograft mice (Test Example 4). It is filed as in vivo. The following applies: 3 mg/kg into tail vein, once a week, twice in total; PK-59 xenograft nude mice. The method, then: PK-59 cells (RIKEN BioResearch Center, RCB1901) were cultured using RPMI 1640 medium containing 10% fetal bovine serum in the presence of 5% CO2 at 37° C. The PK-59 cells were collected and suspended in PBS, and after adding an equal amount of Matrigel (from Becton, Dickinson and Company), 4- to 5-week-old male nude mice (BALB/c-nu (nu/nu), from Charles River Laboratories Japan) were subcutaneously inoculated with the cell suspension of 1.0 to 2.0×10^7 cells/mL was subcutaneously inoculated in a volume of 100 μL per mouse. About two weeks after the inoculation, the mice were divided into groups so that all the groups had approximately the same tumor volume and body weight, and administration of test compounds was started on the next day. The study was conducted for 5 mice each of a vehicle group and test compound administration groups. The compounds were dissolved in a solvent containing ethanol (from FUJIFILM Wako Pure Chemical Corporation), a 5% glucose solution (from Otsuka Pharmaceutical), 1M hydrochloric acid (from Kanto Chemical Co., Inc.), 50% (2-hydroxypropyl)-P-cyclodextrin (HP-βCD) solution (from ROQUETTE), HCO-40 (from Nikko Chemicals Co., Ltd.) and 1M sodium hydroxide solution (from Kanto Chemical Co., Inc.) at a liquid amount ratio of 4:84.4:1.1:1:9:0.5. The test compounds dissolved in the respective solvents or the solvents were administered into tail vein. The administration was performed once a week and twice in total. The tumor sizes and the body weights were measured twice a week. The tumor volumes were calculated using the following equation.
[Tumor volume (mm^3)]=[Long diameter of tumor (mm)]×[Short diameter of tumor (mm)]^2×0.5
The tumor growth inhibition rate (%) by the test compounds were calculated with the tumor volumes of the test compound administration groups on the previous day of the start of the administration taken as 100% inhibition and the tumor volumes of the vehicle groups two weeks after the initial administration taken as 0% inhibition. In addition, when the tumor volume of a test compound administration group was smaller than the tumor volume on the previous day of the start of the administration, the tumor regression rate (%) by the test compound was calculated with the tumor volume on the previous day of the start of the administration taken as 0% regression and with the tumor volume 0 taken as 100% regression.

As for `CO[C@@H](C)COc1cc(N2C[C@@H]3C[C@H]2CN3)c2cc(C3CC3)c(-c3c(C)c(F)cc4[nH]ncc34)c(OCc3ccc(C(=O)N4CCN(Cc5ccc6c(c5)n(C)c(=O)n6C5CCC(=O)NC5=O)C[C@@H]4C)cc3)c2n1` (stereo partly drawn) [Example 29, 3-(5-{[(3S)-4-{4-[({6-cyclopropyl-4-[(1S,4S)-2,5-diazabicyclo[2.2.1]heptan-2-yl]-7-(6-fluoro-5-methyl-1H-indazol-4-yl)-2-[(2S)-2-methoxypropoxy]quinolin-8-yl}oxy)methyl]benzoyl}-3-methylpiperazin-1-yl]methyl}-3-methyl-2-oxo-2,3-dihydro-1H-benzimidazol-1-yl)piperidine-2,6-dione], in test [1], the concentration for half-maximal inhibition (IC50) (commonly the point on the concentration scale where inhibition reaches its midpoint) worked out at 24 nM. Moreover, in test [2], the “Anti-Tumor Activity Two Weeks After Initial Administration (tumor regression rate)” value is 5% regression.

On to `CO[C@@H](C)COc1cc(O[C@H]2CCNC2)c2cc(C3CC3)c(-c3c(C)c(F)cc4[nH]ncc34)c(OCc3ccc(C(=O)N4CCN(Cc5ccc6c(c5)n(C)c(=O)n6C5CCC(=O)NC5=O)C[C@@H]4C)cc3)c2n1` (stereo partly drawn) [Example 12, 3-[5-({(3S)-4-[4-({[6-cyclopropyl-7-(6-fluoro-5-methyl-1H-indazol-4-yl)-2-[(2S)-2-methoxypropoxy]-4-{[(3S)-pyrrolidin-3-yl]oxy}quinolin-8-yl]oxy}methyl)benzoyl]-3-methylpiperazin-1-yl}methyl)-3-methyl-2-oxo-2,3-dihydro-1H-benzimidazol-1-yl]piperidine-2,6-dione], for which, in test [1], the IC50 came to 16 nM. Further, the “Anti-Tumor Activity Two Weeks After Initial Administration (tumor regression rate)” value in test [2] was determined as 35% regression.

Take `Cc1c(F)cc2[nH]ncc2c1-c1c(C2CC2)cc2c(N3C[C@@H]4C[C@H]3CN4)nc(OC3CCOCC3)nc2c1OCc1ccc(C(=O)N2CCN(Cc3ccc4c(c3)n(C)c(=O)n4C3CCC(=O)NC3=O)C[C@@H]2C)cc1` (stereo partly drawn) [Example 8, 3-(5-{[(3S)-4-{4-[({(7M)-6-cyclopropyl-4-[(1S,4S)-2,5-diazabicyclo[2.2.1]heptan-2-yl]-7-(6-fluoro-5-methyl-1H-indazol-4-yl)-2-[(oxan-4-yl)oxy]quinazolin-8-yl}oxy)methyl]benzoyl}-3-methylpiperazin-1-yl]methyl}-3-methyl-2-oxo-2,3-dihydro-TH-benzimidazol-1-yl)piperidine-2,6-dione]: the concentration for half-maximal inhibition (IC50) in test [1] was 21 nM. Further, the “Anti-Tumor Activity Two Weeks After Initial Administration (tumor regression rate)” value in test [2] came out at 28% regression.

Turning to `CO[C@@H](C)COc1nc(N2C[C@@H]3C[C@H]2CN3)c2cc(C3CC3)c(-c3c(C)c(F)cc4[nH]ncc34)c(OCc3ccc(C(=O)N4CCN(Cc5ccc6c(c5)n(C)c(=O)n6C5CCC(=O)NC5=O)C[C@@H]4C)cc3)c2n1` (stereo partly drawn) [Example 10, 3-(5-{[(3S)-4-{4-[({(7M)-6-cyclopropyl-4-[(1S,4S)-2,5-diazabicyclo[2.2.1]heptan-2-yl]-7-(6-fluoro-5-methyl-1H-indazol-4-yl)-2-[(2S)-2-methoxypropoxy]quinazolin-8-yl}oxy)methyl]benzoyl}-3-methylpiperazin-1-yl]methyl}-3-methyl-2-oxo-2,3-dihydro-1H-benzimidazol-1-yl)piperidine-2,6-dione], the half-inhibitory concentration (IC50) in test [1] stood at 9 nM. Also, the “Anti-Tumor Activity Two Weeks After Initial Administration (tumor regression rate)” value in test [2] worked out at 28% regression.
